Data taken from publication PMC11448925, “Crystal structure of guanosine 5′-monophosphate synthetase from the thermophilic bacterium Thermus thermophilus HB8” (Acta Crystallographica Section F: Structural Biology …, 2024).

T1: TtGuaA (GMP synthetase, GuaA) (Thermus thermophilus, UniProt Q5SI28)
T1 construct: full length, 503 residues, no tag; pET-11a in E. coli Rosetta(DE3); selenomethionyl crystals for the XMP complex; homodimer
T1 sequence (Q5SI28 1-503): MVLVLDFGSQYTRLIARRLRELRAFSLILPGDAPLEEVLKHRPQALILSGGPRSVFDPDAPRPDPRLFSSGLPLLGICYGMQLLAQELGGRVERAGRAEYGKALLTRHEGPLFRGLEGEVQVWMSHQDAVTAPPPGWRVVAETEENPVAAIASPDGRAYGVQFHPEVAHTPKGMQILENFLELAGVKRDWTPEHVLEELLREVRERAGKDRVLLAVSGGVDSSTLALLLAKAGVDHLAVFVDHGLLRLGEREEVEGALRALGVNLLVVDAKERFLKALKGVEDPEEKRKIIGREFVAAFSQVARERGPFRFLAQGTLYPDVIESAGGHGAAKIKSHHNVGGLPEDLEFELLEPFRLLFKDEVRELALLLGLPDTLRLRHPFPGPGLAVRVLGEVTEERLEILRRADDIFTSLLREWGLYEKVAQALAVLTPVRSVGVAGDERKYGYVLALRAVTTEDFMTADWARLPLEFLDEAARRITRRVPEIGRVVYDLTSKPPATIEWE

B1: Guanosine 5′-monophosphate (GMP) synthetase (GuaA) from Thermus thermophilus HB8 (enzyme, Thermus thermophilus (strain HB8))
chain: MVLVLDFGSQYTRLIARRLRELRAFSLILPGDAPLEEVLKHRPQALILSGGPRSVFDPDAPRPDPRLFSSGLPLLGICYGMQLLAQELGGRVERAGRAEYGKALLTRHEGPLFRGLEGEVQVWMSHQDAVTAPPPGWRVVAETEENPVAAIASPDGRAYGVQFHPEVAHTPKGMQILENFLELAGVKRDWTPEHVLEELLREVRERAGKDRVLLAVSGGVDSSTLALLLAKAGVDHLAVFVDHGLLRLGEREEVEGALRALGVNLLVVDAKERFLKALKGVEDPEEKRKIIGREFVAAFSQVARERGPFRFLAQGTLYPDVIESAGGHGAAKIKSHHNVGGLPEDLEFELLEPFRLLFKDEVRELALLLGLPDTLRLRHPFPGPGLAVRVLGEVTEERLEILRRADDIFTSLLREWGLYEKVAQALAVLTPVRSVGVAGDERKYGYVLALRAVTTEDFMTADWARLPLEFLDEAARRITRRVPEIGRVVYDLTSKPPATIEWE
notes: GMP synthetase (GuaA), Thermus thermophilus HB8, gene TTHA1552; The apo structure (2ywb) was solved with native protein; the XMP complex (2ywc) was solved from selenomethionyl protein crystals; No tag is stated for the construct; also called TtGuaA; TTHA1552

Columns and labels:
[1] = target: T1, TtGuaA (GMP synthetase, GuaA); test: X-ray crystallography, […] Å; type: binding; details: co-crystal with 10 mM XMP, pH 4.4, 20 °C; site between ATPPase and dimerization domains
[2] = target: the molecule itself; test: SEC; size-exclusion chromatography of purified TtGuaA; conditions of the estimate not told

Molecule	X-ray crystallography, 2.20 Å [1]	stoichiometry N [2]
O=c1[nH]c(=O)c2ncn([C@@H]3O[C@H](COP(=O)(O)O)[C@@H](O)[C@H]3O)c2[nH]1 [XMP]	In TtGuaA–XMP, one XMP molecule was bound to each monomer.	–
B1	–	2
